Laboratory results reported in PMC7922534, “Searching for Peptide Inhibitors of T Regulatory Cell Activity by Targeting Specific Domains of FOXP3 Transcription Factor” (Biomedicines, 2021).
Each block holds one molecule with its values, some of them ahead of it.

Key:
[1] = test system: murine CD4+CD25+ Treg cells; assay: In vitro Treg inhibition: anti-CD3 stimulated effector T cells co-cultured with Treg cells, tritiated thymidine incorporation; type: cell-based, mouse; conditions: peptide 50 μM; for Treg inhibitory capacity in vitro (proliferation of effector T cells with anti-CD3 in presence of Treg): BALB/c Teff 10^5 + Treg 10^4 cells/well, 3 days, tritiated thymidine; for toxicity in Teff&Treg co-cultures: cpm below cpm of Teff&Treg co-cultures without peptide
Experimental: (§1) In vitro assays were carried out using (i) the Karpas 299 human cell line (ACC-31, DSMZ, Germany), derived from a human lymphoma with a regulatory T cell profile or (ii) using natural Treg cells isolated from the murine splenocytes. To evaluate the effect of peptides on the immunosuppressive activity of the Karpas 299 cell line, a “mixed lymphocyte reaction” (MLR) assay was carried out using peripheral blood mononuclear cells (PBMCs) from two donors (previously tested to induce a strong MLR reaction in co-culture) (1 × 10^5 cells/well per each PBMC) in the presence or absence of Karpas 299 (1 × 10^4 cells/well). Peptides were added at 50 μM to the co-cultures to evaluate their capacity to restore the production of interferon-gamma (IFN-γ) inhibited by Karpas 299. After 48 hours, the supernatants were extracted to measure interferon-gamma (IFN-γ) by means of a commercial ELISA (Pharmingen, San Diego, CA, US). In vitro assays for Treg inhibition using natural Treg cells: Murine CD4+CD25+ (Treg cells), and CD4+CD25-T-cells (effector T cells) were purified from murine spleen cells by using a murine regulatory T-cell isolation kit (Miltenyi Biotec, Bergisch Gladbach, Germany) according to the manufacturer’s instructions. The purity of the resulting T-cell populations was confirmed to be >95% by flow cytometry. Inhibition of murine T regulatory cell function was measured in an in vitro assay of T-cell stimulation. Effector T cells (10^5 cells/well) from BALB/c mice were stimulated in vitro with 2, 5 μg/mL of anti-mouse CD3 antibody (Pharmingen) in the presence/absence of purified Treg cells (10^4 cells/well) and the indicated peptides (50 μM). T-cell proliferation was measured 3 days later as previously described. Percentage of Treg inhibition was calculated using the following formula: % inhibition= 100*((cpm of Teff&Treg co-cultures in the presence of peptide - cpm of Teff&Treg co-cultures)/(cpm of Teff - cpm of Teff&Treg co-cultures)). The Institutional Review Board on Human Subjects (Clínica Universidad de Navarra, Ref 2016.118) approved this research, and informed consent was obtained from all blood donors.

[2] = test system: Karpas 299 human cell line; assay: Mixed lymphocyte reaction with Karpas 299 Treg cell line, IFN-γ by ELISA; type: cell-based; conditions: MLR of PBMCs from two donors + Karpas 299, peptide 50 μM, 48 h
Experimental: as §1

4T1-FOXP3 cells = assay: Proliferation of 4T1-Ctrl and 4T1-FOXP3 tumor cells in vitro; type: cell-based; conditions: peptide 50 μM, Figure 2C
Experimental: The cell line 4T1-FOXP3 expressing FOXP3 was generated. 4T1-WT cells were transfected with empty pcDNA3.1 or with pcDNA3.1 FOXP3, expressing FOXP3 gene and neomycin (which confers resistance to G418 antibiotic) to generate 4T1-Ctrl and 4T1-Foxp3 cells. Briefly, 8 × 10^5 cells were seeded in 6-well culture plates one day prior to transfection. The cultures were 60–80% confluent at the time of transfection. Cells were transfected with 5 ug plasmid DNA per well for 6 hours using lipofectimine 2000 transfection reagent (Invitrogen). After 48 hours, 0.3 mg/mL of G418 drug (GIBCO) was added to the culture during 14 days for the selection of resistant cells. These cells were used in vitro to measure the effect of peptides to overcome the proliferative capacity inhibited by FOXP3. In addition, 4T1-FOXP3 and 4T1-Ctrl cells were injected in vivo (10^5 cells/ mouse) subcutaneously or intravenously to compare their capacity to induce tumors and lung metastases. Murine Lewis lung carcinoma expressing OVA, LLCOVA were kindly provided by Dr. Daniel Ajona (CIMA). The murine colon adenocarcinoma cell line MC38, LLOOVA, 4T1-Ctrl, and 4T1-FOXP3 were cultured in mouse medium (RPMI 1640, 10% fetal calf serum (Sigma), 100 U/mL penicillin, 100 μg/mL streptomycin (Invitrogene), […] Gentamicin (Gibco), 2 mM L-Glutamine (Lifetechnologies), […] β-mercaptoethanol (Sigma), and fungizone (GIBCO). All cell lines were cultured at 37 °C in a humidified atmosphere with 6.5% CO2.

FOXP3 = assay: Surface plasmon resonance binding of peptides to a chip coated with FOXP3; conditions: peptide 10 μM; Figure 4A
Experimental: (§2) The screening of peptide binders to FOXP3 was performed by surface plasmon resonance (SPR) using a ProteOn XPR36 (Bio-Rad, Hercules CA, USA) optical biosensor. Recombinant protein FOXP3-6His produced and purified from E-coli was immobilized covalently onto a GLC sensor chip (Bio-Rad) using the coupling reagents sulfo-NHS (N-Hydroxysulfosuccinimide) and EDC (1-Ethyl-3-(3-dimethylaminopropyl) carbodiimide, (Bio-Rad) as previously described. Peptide solutions (10 μM) were injected by triplicate in running buffer (phosphate-buffered saline, 0.005% (v/v) Tween 20, pH 7.4) at a flow of 30 μL/min. The interspot signal (obtained in the chip surface not immobilized with protein) was used as reference. FOXP3/NFAT1 and FOXP3/AML1 interactions were analyzed by Alphascreen technology as previously described according to the manufacturer’s protocol (Perkin Elmer, Benelux). Reactions were performed in a 40 μL final volume in 96-well Optiwell microtiter plates (Perkin Elmer). The reaction buffer contained 20 mM HEPES (4-(2-hydroxyethyl)-1-piperazineethanesulfonic acid), pH 7.9, 200 mM KCl, 1 mM MgCl2 and 0.05% bovine serum albumin (BSA). Recombinant NFAT1 expressed with a hexa-Histidine tag was captured by nickel chelate acceptor beads, whereas recombinant FOXP3 expressed with a GST (glutathione S-transferase) tag was captured by glutathione donor beads (Perkin Elmer). For FOXP3 dimerization assays, GST-tagged FOXP3 and His-tagged FOXP3 were co-cultured in the presence or absence of the indicated peptides for 1 h. Then, donor and acceptor beads were added as described above and incubated for 2 h. FOXP3/AML1 interaction was measured following a similar protocol using FOXP3-GST and AML1-His proteins. Exposure of the reaction to direct light was avoided as much as possible, and the emission of light from the acceptor beads was measured in the EnVision plate reader after the indicated incubation period (Perkin Elmer, Benelux).

[3] = test system: murine CD4+CD25+ Treg cells; assay: In vitro Treg inhibition: anti-CD3 stimulated effector T cells co-cultured with Treg cells, tritiated thymidine incorporation; type: cell-based, mouse; conditions: peptide 10 μM (not shown)
FOXP3/NFAT1 = assay: FOXP3/NFAT interaction by Alphascreen; type: binding; conditions: alpha screen; Figure 6C
Experimental: as §2, with “The reaction buffer contained 20 mM HEPES (4-(2-hydroxyethyl)-1-piperazineethanesulfonic acid), pH 7.9, 200 mM KCl, 1 mM MgCl2 and 0.05% bovine serum albumin (BSA). Recombinant NFAT1 expressed with a hexa-Histidine tag was captured by nickel chelate acceptor beads, whereas recombinant FOXP3 expressed with a GST (glutathione S-transferase) tag was captured by glutathione donor beads (Perkin Elmer). For FOXP3 dimerization assays, GST-tagged FOXP3 and His-tagged FOXP3 were co-cultured in the presence or absence of the indicated peptides for 1 h. Then, donor and acceptor beads were added as described above and incubated for 2 h.” left out

FOXP3-6His = target: T1, FOXP3-6His (UniProt Q9BZS1-1 1-417); assay: SPR; FOXP3-6His immobilised covalently on a GLC sensor chip (ProteOn XPR36); peptides 10 uM injected in triplicate; PBS, 0.005% Tween 20, pH 7.4; 30 uL/min; interspot signal as reference; conditions: both partners purified
T1 construct: FOXP3 (Forkhead box protein 3) transcription factor; also called His-tagged FOXP3
T1 sequence (looked up): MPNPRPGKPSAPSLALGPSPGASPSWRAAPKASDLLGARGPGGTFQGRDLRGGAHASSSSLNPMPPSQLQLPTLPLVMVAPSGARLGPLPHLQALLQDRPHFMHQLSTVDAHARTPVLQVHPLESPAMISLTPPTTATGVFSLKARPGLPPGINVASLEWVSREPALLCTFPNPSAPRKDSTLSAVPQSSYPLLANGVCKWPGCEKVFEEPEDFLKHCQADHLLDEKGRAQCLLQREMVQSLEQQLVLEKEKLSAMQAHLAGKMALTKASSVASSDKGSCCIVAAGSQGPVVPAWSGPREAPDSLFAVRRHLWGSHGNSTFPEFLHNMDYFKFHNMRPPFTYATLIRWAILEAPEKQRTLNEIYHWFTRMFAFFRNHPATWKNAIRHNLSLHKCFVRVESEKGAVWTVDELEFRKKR

Molecule: CGISYGRKKRRQRRR-KCFVRVESEKG [TAT-393–403, peptide F393–403 fused to the cell-penetrating peptide TAT (Tat 44–57)]
Treg inhibitory capacity in vitro (proliferation of effector T cells with anti-CD3 in presence of Treg) [1]: significantly improved the Treg inhibitory capacity

Molecule: GGFSLHPWWRFNHDR [p65]
Treg inhibitory capacity (Karpas MLR assays) [2]: potential Treg inhibitory capacity
effect on tumor-suppressor activity of FOXP3 (proliferation of 4T1-FOXP3 versus 4T1-Ctrl cells) (4T1-FOXP3 cells): able to inhibit the tumor-suppressor activity

Molecule: IRGLRFGPGFMWPTL [p50]
Treg inhibitory capacity (Karpas MLR assays) [2]: potential Treg inhibitory capacity
effect on tumor-suppressor activity of FOXP3 (proliferation of 4T1-FOXP3 versus 4T1-Ctrl cells) (4T1-FOXP3 cells): able to inhibit the tumor-suppressor activity

binding capacity to FOXP3 by SPR (FKH domain peptides) (FOXP3): good binders to FOXP3
Molecule: IYHWFTRMFAFFRNH [F363–377, 15-mer overlapping peptide from the FKH domain of FOXP3]
toxicity in Teff&Treg co-cultures [1]: some toxicity
Treg inhibitory capacity in vitro [3]: did not exhibit Treg inhibitory capacity
toxicity in Teff&Treg co-cultures [3]: no toxicity was observed

Molecule: KCFVRVESEKGAVWT [F393–407, 15-mer overlapping peptide from the FKH domain of FOXP3]
level of T-cell proliferation in presence of peptide versus anti-CD3 stimulated T-cells without Treg [1]: surpassed the maximum proliferation of T-cells stimulated with anti-CD3 in the absence of Treg cells
Treg inhibitory capacity in vitro (proliferation of effector T cells with anti-CD3 in presence of Treg) [1]: strong Treg inhibitory capacity

binding capacity to FOXP3 by SPR (FKH domain peptides) (FOXP3): good binders to FOXP3
Molecule: NAIRHNLSLHKCFVR [F383–397, 15-mer overlapping peptide from the FKH domain of FOXP3]

Molecule: NLSLHKCFVRVESEK [F388–402, 15-mer overlapping peptide from the FKH domain of FOXP3]
Treg inhibitory capacity in vitro (proliferation of effector T cells with anti-CD3 in presence of Treg) [1]: strong Treg inhibitory capacity

binding capacity to FOXP3 by SPR (FKH domain peptides) (FOXP3): good binders to FOXP3
Molecule: PATWKNAIRHNLSLH [F378–392, 15-mer overlapping peptide from the FKH domain of FOXP3]

Molecule: RRIVSQLLHPLWSMP [p61]
Treg inhibitory capacity (Karpas MLR assays) [2]: potential Treg inhibitory capacity

Molecule: RRQIHLVLPWRAVQS [p52]
Treg inhibitory capacity (Karpas MLR assays) [2]: potential Treg inhibitory capacity
effect on tumor-suppressor activity of FOXP3 (proliferation of 4T1-FOXP3 versus 4T1-Ctrl cells) (4T1-FOXP3 cells): able to inhibit the tumor-suppressor activity

Molecule: RSRFFAPFAFLSSGL [p53]
Treg inhibitory capacity (Karpas MLR assays) [2]: potential Treg inhibitory capacity

Molecule: RTLNEIYHWFTRMFA [F358–372, 15-mer overlapping peptide from the FKH domain of FOXP3]
Treg inhibitory capacity in vitro (proliferation of effector T cells with anti-CD3 in presence of Treg) [1]: strong Treg inhibitory capacity

Molecule: RVESEKGAVW [397–406 L, linear version of peptide F397–406 from the FKH domain]
disruption of FOXP3-NFAT heterodimerization (FOXP3/NFAT1): retained the activity to impair Foxp3/NFAT interaction

binding capacity to FOXP3 by SPR (FKH domain peptides) (FOXP3): good binders to FOXP3
Molecule: TRMFAFFRNHPATWK [F368–382, 15-mer overlapping peptide from the FKH domain of FOXP3]
toxicity in Teff&Treg co-cultures [1]: some toxicity
Treg inhibitory capacity in vitro [3]: did not exhibit Treg inhibitory capacity
toxicity in Teff&Treg co-cultures [3]: no toxicity was observed

Molecule: WAILEAPEKQRTLNE [F348–362, 15-mer overlapping peptide from the FKH domain of FOXP3]
Treg inhibitory capacity in vitro (proliferation of effector T cells with anti-CD3 in presence of Treg) [1]: strong Treg inhibitory capacity

SPR response (FOXP3-6His): > 500 RU
Molecule: IRGLRFGPGFMWPTL (source: synthetic peptide) [p50]

SPR response (FOXP3-6His): > 500 RU
Molecule: RRQIHLVLPWRAVQS (source: synthetic peptide) [p52]

SPR response (FOXP3-6His): > 500 RU
Molecule: GMRFFPWLGVGFAMR (source: synthetic peptide) [p47]

SPR response (FOXP3-6His): > 500 RU
Molecule: RFWDYDLMLRVLRPL (source: synthetic peptide) [p59]

SPR response (FOXP3-6His): > 500 RU
Molecule: GLRERMRLPFFVFGG (source: synthetic peptide) [p49]

SPR response (FOXP3-6His): > 500 RU
Molecule: SSKSLAAPLGLFVVG (source: synthetic peptide) [p55]

SPR response (FOXP3-6His): > 500 RU
Molecule: GGFSLHPWWRFNHDR (source: synthetic peptide) [p65]

SPR response (FOXP3-6His): > 500 RU
Molecule: RDFQSFRKMWPFFAM (source: synthetic peptide) [p60]
